According to ChEMBL document CHEMBL3351285, “Synthesis of chlorinated flavonoids with anti-inflammatory and pro-apoptotic activities in human neutrophils” (Eur J Med Chem, 2014):

Experiments:
[1] = Cytotoxicity against human neutrophils assessed as cell viability at 50 uM after 4 hrs by trypan blue assay; format: cell-based, Neutrophil; details: read-out: Activity
Neutrophil [2] = assay: Inhibition of PMA-induced oxidative burst in human neutrophils at 50 uM by APF assay; format: functional
Neutrophil [3] = assay: Inhibition of PMA-induced oxidative burst in human neutrophils at 50 uM by amplex red assay; format: functional
Neutrophil [4] = assay: Inhibition of PMA-induced oxidative burst in human neutrophils at 50 uM by chemiluminescence assay; format: functional
Neutrophil [5] = assay: Inhibition of PMA-induced oxidative burst in human neutrophils by APF assay; format: functional, cell-based
Neutrophil [6] = assay: Induction of apoptosis in human neutrophils assessed as late apoptotic cells at 50 uM after 4 hrs by Annexin-V-FLUOS staining based flow cytometry (reference value: 0.5%); format: functional
Neutrophil [7] = assay: Induction of apoptosis in human neutrophils assessed as necrotic cells at 50 uM after 4 hrs by Annexin-V-FLUOS staining based flow cytometry (reference value: 0.1%); format: functional
Neutrophil [8] = assay: Induction of apoptosis in human neutrophils assessed as viable cells at 50 uM after 4 hrs by Annexin-V-FLUOS staining based flow cytometry (reference value: 89.8%); format: functional; details: read-out: Activity
Neutrophil [9] = assay: Induction of apoptosis in human neutrophils assessed as early apoptotic cells at 50 uM after 4 hrs by Annexin-V-FLUOS staining based flow cytometry (reference value: 9.7%); format: functional
Neutrophil [10] = assay: Inhibition of PMA-induced oxidative burst in human neutrophils by amplex red assay; format: functional, cell-based
Neutrophil [11] = assay: Inhibition of PMA-induced oxidative burst in human neutrophils by chemiluminescence assay; format: functional, cell-based
Neutrophil [12] = assay: Induction of apoptosis in human neutrophils assessed as necrotic cells at 50 uM after 4 hrs by Annexin-V-FLUOS staining based flow cytometry in presence of Z-DEVD-FMK caspase 3 (reference value: 0.0%); format: functional
Neutrophil [13] = assay: Induction of apoptosis in human neutrophils assessed as early apoptotic cells at 50 uM after 4 hrs by Annexin-V-FLUOS staining based flow cytometry in presence of Z-DEVD-FMK caspase 3 (reference value: 10.1%); format: functional
Neutrophil [14] = assay: Induction of apoptosis in human neutrophils assessed as viable cells at 50 uM after 4 hrs by Annexin-V-FLUOS staining based flow cytometry in presence of Z-DEVD-FMK caspase 3 (reference value: 89.0%); format: functional; details: read-out: Activity
Neutrophil [15] = assay: Induction of apoptosis in human neutrophils assessed as late apoptotic cells at 50 uM after 4 hrs by Annexin-V-FLUOS staining based flow cytometry in presence of Z-DEVD-FMK caspase 3 (reference value: 0.8%); format: functional

Row | IC50 (Neutrophil [5]) [nM] | IC50 (Neutrophil [10]) [nM] | IC50 (Neutrophil [11]) [nM] | SMILES | viability at 4 h, 50 µM [1] [%] | inhibition at 50 µM (Neutrophil [2]) [%] | inhibition at 50 µM (Neutrophil [3]) [%] | inhibition at 50 µM (Neutrophil [4]) [%] | Activity (Neutrophil [6]) [%] | Activity (Neutrophil [7]) [%] | viability at 50 µM (Neutrophil [8]) [%] | Activity (Neutrophil [9]) [%] | Activity (Neutrophil [12]) [%] | Activity (Neutrophil [13]) [%] | viability at 50 µM (Neutrophil [14]) [%] | Activity (Neutrophil [15]) [%]
1 | – | – | – | O=c1cc(-c2ccccc2)oc2ccccc12 [FLAVONE] | 98 | < 40 | < 40 | < 40 | – | – | – | – | – | – | – | –
2 | 7200 | 6200 | 3400 | O=c1cc(-c2ccc(O)c(O)c2)oc2c(Cl)c(O)c(Cl)c(O)c12 | 98 | – | – | – | 0.9 | 0.1 | 83.7 | 15.3 | – | – | – | –
3 | 1800 | 1700 | 4600 | O=c1c(Cl)c(-c2ccc(O)c(O)c2)oc2c(Cl)c(O)cc(O)c12 | 98 | – | – | – | – | – | – | – | – | – | – | –
4 | 400 | 1400 | 2000 | O=c1c(Cl)c(-c2ccc(O)c(O)c2)oc2cc(O)cc(O)c12 | 98 | – | – | – | – | – | – | – | – | – | – | –
5 | 2600 | 1600 | 2600 | O=c1cc(-c2ccc(O)c(O)c2)oc2c(Cl)c(O)cc(O)c12 | 98 | – | – | – | 0.5 | 0 | 74.1 | 25.3 | 0 | 9.6 | 89.4 | 1

Row | SMILES | IC50 (Neutrophil [5]) [nM] | IC50 (Neutrophil [10]) [nM] | IC50 (Neutrophil [11]) [nM] | viability at 4 h, 50 µM [1] [%] | inhibition at 50 µM (Neutrophil [2]) [%] | inhibition at 50 µM (Neutrophil [3]) [%] | inhibition at 50 µM (Neutrophil [4]) [%] | Activity (Neutrophil [6]) [%] | Activity (Neutrophil [7]) [%] | viability at 50 µM (Neutrophil [8]) [%] | Activity (Neutrophil [9]) [%] | Activity (Neutrophil [12]) [%] | Activity (Neutrophil [13]) [%] | viability at 50 µM (Neutrophil [14]) [%] | Activity (Neutrophil [15]) [%]
6 | O=c1c(O)c(-c2ccc(O)c(O)c2)oc2cc(O)cc(O)c12 [QUERCETIN] | 1800 | 2700 | 2800 | 98 | – | – | – | 0.6 | 0.1 | 84.7 | 14.6 | – | – | – | –
7 | O=c1cc(-c2ccc(O)c(O)c2)oc2cc(O)cc(O)c12 [LUTEOLIN] | 2200 | 1700 | 5200 | 98 | – | – | – | 1.1 | 0.1 | 78.6 | 20.2 | – | – | – | –
